Reference: patent US20250295680A1, “NOVEL DUTOGLIPTIN FORMULATIONS AND THEIR PREPARATION” (Recardio Inc., priority 2022, published 2025)

Experiment: Solubility of fatty acid sodium salts and salt precipitation/anion exchange with Dutogliptin tartrate
Assay type: physicochemical
Conditions: for Solubility 2-8° C. / Solubility 25° C.: volume for the stated amount of substance (0.41 mmol Dutogliptin tartrate, 0.83 mmol fatty acid salts); for Precipitation after addition of Dutogliptin tartrate solution: 100 mg/ml Dutogliptin tartrate solution, 2-8° C.
Protocol: Assuming that the ion lattice of Dutogliptin tartrate (dissolved in water) is pulled apart so that the individual Dutogliptin and tartrate ions are in solution, an exchange should take place by adding excess fatty acid anions. The resulting hydrophobic salt should form and precipitate due to reduced solubility.
To promote the exchange, the salts, which were dissolved at room temperature, were cooled to 2-8° C. after the addition of Dutogliptin tartrate and stirred overnight.
Five different physiologic fatty acids (as sodium salts) were prepared by anion exchange of the tartrates with a double molar addition of the salts at a reduced temperature (reduced Dutogliptin tartrate solubility).

[1] = listed as sodium cholate, hydrate

CCCCCCCCCCCC(=O)[O-].[Na+] [Sodium Laurate]
Solubility 2-8° C.: not soluble | Solubility 25° C.: 10 mL

C[C@H](CCC(=O)[O-])[C@H]1CC[C@H]2[C@@H]3[C@H](O)C[C@@H]4C[C@H](O)CC[C@]4(C)[C@H]3C[C@H](O)[C@]12C.O.[Na+] [Sodium cholate hydrate]
Precipitation after addition of Dutogliptin tartrate solution (hydrate): no precipitation | Precipitation after addition of Dutogliptin tartrate solution [1]: no visual evidence of turbidity or precipitation | Solubility 25° C.: 5 mL | Solubility 2-8° C. (hydrate): 5 mL, clear | Solubility 2-8° C. [1]: remained sufficient soluble

CCCCCCCCCCCCCC(=O)[O-].[Na+] [Sodium Myristate]
Solubility 2-8° C.: not soluble | Solubility 25° C.: >10 mL
